Test [1] concerns the target Melanocortin receptor 3 (Homo sapiens, UniProt P41968).
Description: Binding affinity against human melanocortin receptor 3 (hMC3R) (concentration of the peptide at 50% specific binding)
For test [2], the target named is T1, Melanocortin receptor 5 (Homo sapiens, UniProt P33032). The test can be described thus: Increase in intracellular cAMP in CHO cells expressing human melanocortin receptor 5. The test is classed as functional, cell-based.
Test [3] deals with Melanocortin receptor 4 (Homo sapiens, UniProt P32245).
Description: Binding affinity against human melanocortin receptor 4 (hMC4R) (concentration of the peptide at 50% specific binding)
Test [4] addresses T1, Melanocortin receptor 5.
Description: Binding affinity against human melanocortin receptor 5 (hMC5R) (concentration of the peptide at 50% specific binding)
In test [5] the target is T1, Melanocortin receptor 5. Put plainly: Signal transduction efficacy in cAMP assay in the CHO cells expressing human melanocortin receptor 5. It is filed as functional, cell-based.

Peptide text beside a SMILES is read from it.

We go through 22 compounds from ChEMBL document CHEMBL1134662, “Selective, high affinity peptide antagonists of alpha-melanotropin action at human melanocortin receptor 4: their synthesis and biological evaluation in vitro” (J Med Chem, 2001).

T1 sequence (P33032 whole entry): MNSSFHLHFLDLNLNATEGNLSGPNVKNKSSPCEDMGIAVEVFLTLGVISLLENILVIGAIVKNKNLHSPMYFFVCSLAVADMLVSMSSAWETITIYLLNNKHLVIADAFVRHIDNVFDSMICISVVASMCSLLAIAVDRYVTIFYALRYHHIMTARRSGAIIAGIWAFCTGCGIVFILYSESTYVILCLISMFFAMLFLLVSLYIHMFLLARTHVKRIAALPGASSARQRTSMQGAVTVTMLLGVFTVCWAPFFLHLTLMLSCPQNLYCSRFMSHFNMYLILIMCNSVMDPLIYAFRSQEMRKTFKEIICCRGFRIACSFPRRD
Sequence of Melanocortin receptor 3 (P41968 whole entry): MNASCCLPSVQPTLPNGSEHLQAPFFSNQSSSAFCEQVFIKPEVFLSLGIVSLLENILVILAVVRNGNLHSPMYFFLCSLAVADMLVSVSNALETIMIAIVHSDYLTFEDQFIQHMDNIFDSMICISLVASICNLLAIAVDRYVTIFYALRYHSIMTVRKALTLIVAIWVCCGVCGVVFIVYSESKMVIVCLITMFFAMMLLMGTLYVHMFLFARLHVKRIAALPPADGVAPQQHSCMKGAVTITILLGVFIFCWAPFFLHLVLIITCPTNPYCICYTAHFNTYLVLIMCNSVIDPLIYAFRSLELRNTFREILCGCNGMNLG
Sequence of Melanocortin receptor 4 (P32245 whole entry): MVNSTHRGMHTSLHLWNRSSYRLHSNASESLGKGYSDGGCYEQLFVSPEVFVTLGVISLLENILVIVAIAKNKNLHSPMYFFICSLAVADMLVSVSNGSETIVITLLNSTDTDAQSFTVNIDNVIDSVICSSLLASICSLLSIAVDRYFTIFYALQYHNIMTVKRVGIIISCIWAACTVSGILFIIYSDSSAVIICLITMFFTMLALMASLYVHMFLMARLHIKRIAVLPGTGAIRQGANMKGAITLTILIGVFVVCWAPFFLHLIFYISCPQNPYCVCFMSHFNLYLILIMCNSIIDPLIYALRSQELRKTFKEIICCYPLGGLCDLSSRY

Consider `N=C(N)NCCC[C@@H]1NC(=O)[C@@H](Cc2ccc3ccccc3c2)NC(=O)[C@H](Cc2c[nH]cn2)NC(=O)CCC(=O)NC[C@@H](C(N)=O)NC(=O)[C@H](Cc2c[nH]c3ccccc23)NC1=O`, for which the Ki was 29 nM in test [1], 0.26 nM in test [3] and 65 nM in test [4]. The compound further registered an EC50 in test [2] of 210 nM.
For `N=C(N)NCCC[C@@H]1NC(=O)[C@@H](Cc2ccc3ccccc3c2)NC(=O)[C@@H](N)CC(=O)NCCCC[C@@H](C(N)=O)NC(=O)[C@H](Cc2c[nH]c3ccccc23)NC1=O` the same measures were 420 nM, 4 nM, 24 nM and 200 nM.
For the compound `N=C(N)NCCC[C@@H]1NC(=O)[C@@H](Cc2ccc3ccccc3c2)NCC(=O)CC[C@@H](C(N)=O)NC(=O)[C@H](Cc2c[nH]c3ccccc23)NC1=O`, the Ki in test [1] is 5900 nM; in test [3] it was 960 nM; in test [4] it was 5000 nM.
With `N=C(N)NCCC[C@@H]1NC(=O)[C@@H](Cc2ccc3ccccc3c2)NC(=O)CCC(=O)NCCCC[C@H](C(N)=O)NC(=O)[C@@H](Cc2c[nH]c3ccccc23)NC1=O`, the figures for the Ki in test [1], in test [3] and in test [4] were 5900 nM, 1300 nM and 4900 nM, respectively. The compound further displayed an Activation at 5 µM at 5nM in test [5] of 0%.
`CC(=O)N[C@H]1CSSC[C@@H](C(=O)N2CCC[C@H]2C(=O)N2CCC[C@H]2C(=O)N[C@@H](CCCCN)C(=O)N[C@@H](CC(=O)O)C(N)=O)NC(=O)CNC(=O)[C@H](Cc2c[nH]c3ccccc23)NC(=O)[C@H](CCCNC(=N)N)NC(=O)[C@@H](Cc2ccc3ccccc3c2)NC(=O)[C@H](Cc2c[nH]cn2)NC(=O)[C@H](CCC(=O)O)NC1=O` (HELM PEPTIDE1{[ac].C.E.H.[O=C([C@@H](Cc1ccc2ccccc2c1)N[*:1])[*:2]].R.W.G.C.P.P.K.D.[am]}$PEPTIDE1,PEPTIDE1,2:R3-9:R3$$$V2.0): the Ki in test [1] came out at 25 nM; in test [3] it was 1.5 nM; in test [4] it was 16 nM. Further, in test [2], it took 42 nM to reach a half-maximal effect (EC50).
For `CC(=O)N[C@H]1CSSC[C@@H](C(=O)N2CCC[C@H]2C(=O)N2CCC[C@H]2C(=O)N[C@@H](CCCCN)C(=O)N[C@@H](CC(=O)O)C(N)=O)NC(=O)CNC(=O)[C@H](Cc2c[nH]c3ccccc23)NC(=O)[C@H](CCCN=C(N)N)NC(=O)[C@@H](Cc2ccc(Cl)c(Cl)c2)NC(=O)[C@H](Cc2c[nH]cn2)NC(=O)[C@H](CCC(=O)O)NC1=O` the same measures were 20 nM, 2.2 nM, 22 nM and 73 nM.
Turning to `N=C(N)NCCC[C@@H]1NC(=O)[C@@H](Cc2ccc3ccccc3c2)NC(=O)CCC(=O)NCCC[C@@H](C(N)=O)NC(=O)[C@H](Cc2c[nH]c3ccccc23)NC1=O`, the Ki in test [1] stood at 56 nM; in test [3], 0.37 nM; in test [4], 130 nM. Further, the response in test [2] was half-maximal at 300 nM (EC50).
Turning to `N=C(N)NCCC[C@@H]1NC(=O)[C@@H](Cc2ccc3ccccc3c2)NC(=O)CCC(=O)NCC[C@@H](C(N)=O)NC(=O)[C@H](Cc2c[nH]c3ccccc23)NC1=O`, the figures for the Ki in test [1], in test [3] and in test [4] were 3000 nM, 58 nM and 2700 nM, respectively.
In the case of `N=C(N)NCCC[C@H]1NC(=O)[C@@H](Cc2ccc3ccccc3c2)NC(=O)CCC(=O)NCCCC[C@H](C(N)=O)NC(=O)[C@@H](Cc2c[nH]c3ccccc23)NC1=O`, the results for the Ki in test [1], in test [3] and in test [4] were 5900 nM, 3700 nM and 7000 nM, respectively. In test [5], this compound registered an Activation at 5 µM at 5nM of 5%.
For `N=C(N)NCCC[C@@H]1NC(=O)[C@@H](Cc2ccc3ccccc3c2)NC(=O)CCC(=O)NCCCC[C@H](C(N)=O)NC(=O)[C@H](Cc2c[nH]c3ccccc23)NC1=O` the same measures were 5900 nM, 3800 nM, 4900 nM and 7%.
`N=C(N)NCCC[C@@H]1NC(=O)[C@H](Cc2ccc3ccccc3c2)NC(=O)CCC(=O)NCC[C@H](C(N)=O)NC(=O)[C@@H](Cc2c[nH]c3ccccc23)NC1=O` registered an Activation at 5 µM at 5nM in test [5] of 13%.
As to `N=C(N)NCCC[C@@H]1NC(=O)[C@@H](Cc2ccc3ccccc3c2)NC(=O)CCC(=O)NCCCC[C@@H](C(N)=O)NC(=O)[C@H](Cc2c[nH]c3ccccc23)NC1=O`, the results for the Ki in test [1], in test [3] and in test [4] were 150 nM, 0.5 nM and 540 nM, respectively. A half-maximal response in test [2] (EC50) required 530 nM.
`N=C(N)NCCC[C@@H]1NC(=O)[C@@H](Cc2ccc3ccccc3c2)NC(=O)[C@H](Cc2c[nH]cn2)NCC(=O)CC[C@@H](C(N)=O)NC(=O)[C@H](Cc2c[nH]c3ccccc23)NC1=O`: the Ki in test [1] was 2900 nM; in test [3] it was 420 nM; in test [4], 2400 nM. The compound further registered an EC50 in test [2] (cho) greater than 5000 nM.
In the case of `N=C(N)NCCC[C@@H]1NC(=O)[C@@H](Cc2ccc3ccccc3c2)NC(=O)[C@H](Cc2c[nH]cn2)NC(=O)CCC(=O)NCCCC[C@@H](C(N)=O)NC(=O)[C@H](Cc2c[nH]c3ccccc23)NC1=O`, the Ki came to 47 nM in test [1], 0.88 nM in test [3] and 150 nM in test [4]. Further, the midpoint of the response in test [2], the EC50, lay at 170 nM.
On to `N=C(N)NCCC[C@@H]1NC(=O)[C@H](Cc2ccc3ccccc3c2)NC(=O)CCC(=O)NC2CCC(C(N)=O)N2C(=O)[C@@H](Cc2c[nH]c3ccccc23)NC1=O` (stereo not given in full), for which the Ki was 3000 nM in test [1], 600 nM in test [3] and 2500 nM in test [4]. Besides, in test [5], the Activation at 5 µM at 5nM stood at 3%.
`CCC1CC(=O)N[C@H](Cc2ccc3ccccc3c2)C(=O)N[C@@H](CCCN=C(N)N)C(=O)N[C@@H](Cc2c[nH]c3ccccc23)C(=O)N[C@H](C(N)=O)CCCCNC1=O` (stereo in doubt; 17): the inhibition constant (Ki) in test [1] turned out to be 120 nM; in test [3], 0.58 nM; in test [4] it was 140 nM. In test [2] (cho), this compound registered an EC50 of 240 nM.
For `CC(=O)N[C@H]1CSSC[C@@H](C(N)=O)NC(=O)CNC(=O)[C@H](Cc2c[nH]c3ccccc23)NC(=O)[C@H](CCCN=C(N)N)NC(=O)[C@@H](Cc2ccc3ccccc3c2)NC(=O)[C@H](Cc2c[nH]cn2)NC(=O)[C@H](CCC(=O)O)NC1=O` the same measures were 2.6 nM, 0.57 nM, 0.39 nM and 0.22 nM.
Turning to `CCC1CC(=O)N[C@H](Cc2ccc3ccccc3c2)C(=O)N[C@@H](CCCN=C(N)N)C(=O)N[C@@H](Cc2c[nH]c3ccccc23)C(=O)N[C@H](C(N)=O)CCCCNC1=O` (stereo in doubt; 18), the Ki in test [1] was found to be 240 nM; in test [3], 1.5 nM; in test [4], 400 nM. For the same compound, the EC50 in test [2] (cho) worked out at 220 nM.
In turn, `N=C(N)NCCC[C@@H]1NC(=O)[C@@H](Cc2ccc3ccccc3c2)NCC(=O)CC[C@H](C(N)=O)NC(=O)[C@@H](Cc2c[nH]c3ccccc23)NC1=O` returned an Inhibition at 10nM in test [5] of 1%.
For the compound `N=C(N)NCCC[C@@H]1NC(=O)[C@@H](Cc2ccc3ccccc3c2)NC(=O)CCC(=O)NC[C@@H](C(N)=O)NC(=O)[C@H](Cc2c[nH]c3ccccc23)NC1=O`, the Ki in test [1] came to 1500 nM; in test [3], 110 nM; in test [4], 4800 nM. Also, the EC50 in test [2] (cho) was greater than 5000 nM.
For `CC(=O)N[C@H]1CC(=O)NCCCC[C@@H](C(N)=O)NC(=O)[C@H](Cc2c[nH]c3ccccc23)NC(=O)[C@H](CCCNC(=N)N)NC(=O)[C@@H](Cc2ccc3ccccc3c2)NC1=O`, the Ki in test [1] came out at 190 nM; in test [3], 4.3 nM; in test [4] it was 720 nM. This compound also came in with an EC50 in test [2] of 1000 nM.
For `N=C(N)NCCC[C@@H]1NC(=O)[C@@H](Cc2ccc3ccccc3c2)NC(=O)[C@H](Cc2cnc[nH]2)NC(=O)[C@@H](N)CC(=O)NCCCC[C@@H](C(N)=O)NC(=O)[C@H](Cc2c[nH]c3ccccc23)NC1=O` the same measures were 14 nM, 1.6 nM, 18 nM and 18 nM.
